Source: BindingDB's records for doi:10.1016/j.ejmech.2019.111919 (University of Auckland, 2020)

Columns and labels:
[1] = biological target: Phosphatidylcholine-specific phospholipase C (Bacillus cereus) (UniProt P09598); experiment: Inhibition of recombinant Bacillus cereus N-terminal His6-tagged full length PC-PLC 3C Protease cleavage site expressed in Escherichia coli BL21(DE3) cells using phosphatidylcholine as substrate by amplex red assay relative to control
[2] = biological target: Phosphatidylcholine-specific phospholipase C (Bacillus cereus) (UniProt P09598); experiment: Binding affinity to Bacillus cereus N-terminal His6-tagged full length PC-PLC 3C Protease cleavage site expressed in Escherichia coli BL21(DE3) cells using 3,3-dimethylglutaratic acid as substrate by intrinsic fluorescence assay
[3] = Inhibition of Bacillus cereus phospholipase C using L-alpha-phosphatidylcholine as substrate by Lineweaver-Burk plot analysis
[4] = Inhibition of Bacillus cereus PC-phospholipase C using phosphoryl-choline as substrate by molybdenum blue dye based assay

Phosphatidylcholine-specific phospholipase C (Bacillus cereus), sequence (P09598 whole entry, looked up): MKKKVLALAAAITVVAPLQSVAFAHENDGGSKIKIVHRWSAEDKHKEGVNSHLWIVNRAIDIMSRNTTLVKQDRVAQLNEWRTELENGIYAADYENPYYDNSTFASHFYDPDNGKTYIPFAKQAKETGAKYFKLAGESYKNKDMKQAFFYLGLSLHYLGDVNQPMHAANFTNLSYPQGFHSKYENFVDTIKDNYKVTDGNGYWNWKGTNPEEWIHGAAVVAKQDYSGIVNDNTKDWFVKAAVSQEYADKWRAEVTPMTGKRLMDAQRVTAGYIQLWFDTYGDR

| SMILES | IC50 [1] | further results |
| --- | --- | --- |
| O=C(O)c1cc(NCc2cccc(Cl)c2)ccc1N1CCOCC1 | 4.9 µM | – |
| O=C(O)c1cc(NCc2ccccc2Cl)ccc1N1CCOCC1 | 3.6 µM | Kd [2]: 325 µM |
| CCCCCOC(=O)CC(CSP(=O)([O-])OCC[N+](C)(C)C)C(=O)OCCCCC (stereo not drawn) | – | Ki [3]: 7 µM |
| CN(C)c1ccc(C2NC(C(=O)O)Cc3c2[nH]c2ccccc32)cc1 (stereo not drawn) | 10.9 µM | – |
| O=C1N(O)CCCCN1O | – | Ki [4]: 71 µM |
| O=C(O)C1Cc2c([nH]c3ccccc23)C(c2ccc(O)c(O)c2)N1 (stereo not drawn) | 3.1 µM | – |
| O=C(O)c1cc(NCc2cccc(Br)c2)ccc1N1CCOCC1 | 3.69 µM | – |
